Data published in US20070167452A1, “Therapeutic amide derivatives” (PFIZER, INC., priority 2004, published 2007).

Columns and labels:
[1] = target: Human HERG (Homo sapiens, UniProt Q12809); test: Human Dofetilide Binding Assay
Procedure: Human HERG transfected HEK293S cells were prepared and grown in-house. The collected cells were suspended in 50 mM Tris-HCl (pH 7.4 at 4° C.) and homogenized using a hand held Polytron PT 1200 disruptor set at full power for 20 sec on ice. The homogenates were centrifuged at 48,000×g at 4° C. for 20 min. The pellets were then resuspended, homogenized, and centrifuged once more in the same manner. The final pellets were resuspended in an appropriate volume of 50 mM Tris-HCl, 10 mM KCl, 1 mM MgCl2 (pH 7.4 at 4° C.), homogenized, aliquoted and stored at −80° C. until use. An aliquot of membrane fractions was used for protein concentration determination using BCA protein assay kit (PIERCE) and ARVOsx plate reader (Wallac).
Binding assays were conducted in a total volume of 200 μl in 96-well plates. Twenty μl of test compounds were incubated with 20 μl of [^3H]-dofetilide (Amersham, final 5 nM) and 160 μl of membrane homogenate (25 μg protein) for 60 minutes at room temperature. Nonspecific binding was determined by 10 μM dofetilide at the final concentration. Incubation was terminated by rapid vacuum filtration over 0.5% presoaked GF/B Betaplate filter using Skatron cell harvester with 50 mM Tris-HCl, 10 mM KCl, 1 mM MgCl2, pH 7.4 at 4° C. The filters were dried, put into sample bags and filled with Betaplate Scint. Radioactivity bound to filter was counted with Wallac Betaplate counter.

[2] = target: T1, NR2B receptor (Rattus norvegicus, UniProt P35439+Q00960); test: NR2B Binding Assay; settings: for IC50: forebrain P2 membranes of male CD rats, 5 nM [3H] NR2B ligand
T1 construct: Membranes were prepared by homogenization of forebrain of male CD rats; from tissue; host or cells: forebrain of male CD rats (P2 membrane)
T1 sequence (Q00960 27-1482, other chains not shown): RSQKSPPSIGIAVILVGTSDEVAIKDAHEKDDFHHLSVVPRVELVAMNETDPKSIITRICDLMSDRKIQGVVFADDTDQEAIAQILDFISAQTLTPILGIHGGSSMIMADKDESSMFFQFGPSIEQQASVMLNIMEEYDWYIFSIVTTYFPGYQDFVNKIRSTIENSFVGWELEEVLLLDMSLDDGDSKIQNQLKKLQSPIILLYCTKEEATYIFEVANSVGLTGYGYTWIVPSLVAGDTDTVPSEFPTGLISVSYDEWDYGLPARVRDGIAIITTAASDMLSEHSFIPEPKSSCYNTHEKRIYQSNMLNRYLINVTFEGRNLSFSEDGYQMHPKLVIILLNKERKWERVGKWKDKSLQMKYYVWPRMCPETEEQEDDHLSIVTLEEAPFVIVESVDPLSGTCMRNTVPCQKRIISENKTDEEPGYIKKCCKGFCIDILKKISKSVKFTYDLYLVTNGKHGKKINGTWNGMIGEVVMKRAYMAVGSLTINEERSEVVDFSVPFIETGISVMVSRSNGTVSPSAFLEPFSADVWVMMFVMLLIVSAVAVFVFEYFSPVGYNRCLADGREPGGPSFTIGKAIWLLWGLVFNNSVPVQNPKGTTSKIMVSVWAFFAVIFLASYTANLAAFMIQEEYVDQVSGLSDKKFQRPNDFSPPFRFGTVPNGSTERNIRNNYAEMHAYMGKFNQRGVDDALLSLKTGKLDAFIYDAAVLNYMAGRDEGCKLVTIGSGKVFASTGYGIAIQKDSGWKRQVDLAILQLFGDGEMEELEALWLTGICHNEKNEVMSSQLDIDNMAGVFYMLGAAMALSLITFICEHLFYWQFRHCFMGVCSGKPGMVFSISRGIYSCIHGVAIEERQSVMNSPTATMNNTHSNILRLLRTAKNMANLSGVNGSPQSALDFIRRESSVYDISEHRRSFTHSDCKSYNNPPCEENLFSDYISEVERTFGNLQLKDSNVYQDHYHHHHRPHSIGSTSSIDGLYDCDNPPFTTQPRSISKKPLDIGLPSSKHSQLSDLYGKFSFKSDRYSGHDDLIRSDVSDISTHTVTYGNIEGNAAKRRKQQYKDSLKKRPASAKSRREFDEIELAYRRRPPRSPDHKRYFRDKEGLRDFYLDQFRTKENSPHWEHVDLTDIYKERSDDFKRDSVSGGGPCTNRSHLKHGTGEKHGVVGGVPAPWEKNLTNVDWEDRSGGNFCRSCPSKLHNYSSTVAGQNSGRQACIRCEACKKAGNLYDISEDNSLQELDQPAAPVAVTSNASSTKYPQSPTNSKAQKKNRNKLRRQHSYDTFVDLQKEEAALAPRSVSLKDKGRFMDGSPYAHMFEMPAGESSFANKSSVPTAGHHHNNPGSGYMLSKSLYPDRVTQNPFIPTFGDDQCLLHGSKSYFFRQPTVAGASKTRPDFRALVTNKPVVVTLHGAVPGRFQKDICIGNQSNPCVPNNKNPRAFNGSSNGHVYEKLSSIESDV
Procedure: The activity of the cycloalkylene amide compounds of the present invention, as NR2B antagonists, is determined by their ability to inhibit the binding of NR2B subunit at its receptor sites employing radioactive ligands.
The NR^2B antagonist activity of the cycloalkylene amide compounds is evaluated by using the standard assay procedure described in, for example, J. Pharmacol., 331, pp 117-126, 1997. This method essentially involves determining the concentration of the individual compound required to reduce the amount of radiolabelled NR2B ligands by 50% at their receptor sites, thereby affording characteristic IC50 values for each compound tested. More specifically, the assay is carried out as follows.
Membranes were prepared by homogenization of forebrain of male CD rats weighing between 170˜190 g by using glass-Teflon homogenizer in 0.32 M sucrose at 4° C. The crude nuclear pellet was removed by centrifugation at 1000×g for 10 min, and the supernatant centrifuged at 17000×g for 25 min. The resulting pellet was resuspended in 5 mM Tris acetate pH 7.4 at 4° C. for 10 min to lyse cellular particles and again centrifuged at 17000×g. The resulting pellet (P2 membrane) was washed twice in Tris acetate, resuspended at 5.5 mg protein/ml and stored at −20° C. until use. All the manipulation was done on ice, and stock solution and equipment were kept on ice at all time.
For the saturation assay, receptor saturation was determined by incubating [^3H]-1-[(1S*,2S*)-2-hydroxy-2-(4-hydroxyphenyl)-1-methylethyl]-4-phenylpiperidin-4-ol and 50 μg protein of P2 membrane for 60 minutes at room temperature in a final 100 μl of incubation buffer (50 mM Tris HCl, pH7.4). Total and non-specific bindings (in the presence of 10 μM of unlabeled 1-[(1S*,2S*)-2-hydroxy-2-(4-hydroxyphenyl)-1-methylethyl]-4-phenylpiperidin-4-ol) were determined in a range of [^3H]-1-[(1S*,2S*)-2-hydroxy-2-(4-hydroxyphenyl)-1-methylethyl]-4-phenylpiperidin-4-ol concentrations (0.625 nM to 60 nM).
For the competition assay, test compounds were incubated in duplicate with 5 nM [^3H]-1-[(1S*,2S*)-2-hydroxy-2-(4-hydroxyphenyl)-1-methylethyl]-4-phenylpiperidin-4-ol and 50 μg protein of P2 membrane for 60 minutes at room temperature in a final 100 μl of 50 mM Tris HCl buffer (pH7.4). Nonspecific binding was determined by 10 μM of unlabeled 1-[(1S*,2S*)-2-hydroxy-2-(4-hydroxyphenyl)-1-methylethyl]-4-phenylpiperidin-4-ol (25 μl). The saturation derived KD gained in saturation assay was used for all Ki calculations.
All incubations were terminated by rapid vacuum filtration over 0.2% polyethyleneimine soaked Whatman GF/B glass fibre filter paper using a SKATRON cell harvester followed by three washes with ice-cold filtration buffer (5 mM Tris HCl, pH 7.4.). Receptor-bound radioactivity was quantified by liquid scintillation counting using Packard LS counter. Competition assays were performed by counting Wallac GF/B filters on Betaplate scintillation counter (Wallac).

Human HERG, sequence (Q12809 whole entry): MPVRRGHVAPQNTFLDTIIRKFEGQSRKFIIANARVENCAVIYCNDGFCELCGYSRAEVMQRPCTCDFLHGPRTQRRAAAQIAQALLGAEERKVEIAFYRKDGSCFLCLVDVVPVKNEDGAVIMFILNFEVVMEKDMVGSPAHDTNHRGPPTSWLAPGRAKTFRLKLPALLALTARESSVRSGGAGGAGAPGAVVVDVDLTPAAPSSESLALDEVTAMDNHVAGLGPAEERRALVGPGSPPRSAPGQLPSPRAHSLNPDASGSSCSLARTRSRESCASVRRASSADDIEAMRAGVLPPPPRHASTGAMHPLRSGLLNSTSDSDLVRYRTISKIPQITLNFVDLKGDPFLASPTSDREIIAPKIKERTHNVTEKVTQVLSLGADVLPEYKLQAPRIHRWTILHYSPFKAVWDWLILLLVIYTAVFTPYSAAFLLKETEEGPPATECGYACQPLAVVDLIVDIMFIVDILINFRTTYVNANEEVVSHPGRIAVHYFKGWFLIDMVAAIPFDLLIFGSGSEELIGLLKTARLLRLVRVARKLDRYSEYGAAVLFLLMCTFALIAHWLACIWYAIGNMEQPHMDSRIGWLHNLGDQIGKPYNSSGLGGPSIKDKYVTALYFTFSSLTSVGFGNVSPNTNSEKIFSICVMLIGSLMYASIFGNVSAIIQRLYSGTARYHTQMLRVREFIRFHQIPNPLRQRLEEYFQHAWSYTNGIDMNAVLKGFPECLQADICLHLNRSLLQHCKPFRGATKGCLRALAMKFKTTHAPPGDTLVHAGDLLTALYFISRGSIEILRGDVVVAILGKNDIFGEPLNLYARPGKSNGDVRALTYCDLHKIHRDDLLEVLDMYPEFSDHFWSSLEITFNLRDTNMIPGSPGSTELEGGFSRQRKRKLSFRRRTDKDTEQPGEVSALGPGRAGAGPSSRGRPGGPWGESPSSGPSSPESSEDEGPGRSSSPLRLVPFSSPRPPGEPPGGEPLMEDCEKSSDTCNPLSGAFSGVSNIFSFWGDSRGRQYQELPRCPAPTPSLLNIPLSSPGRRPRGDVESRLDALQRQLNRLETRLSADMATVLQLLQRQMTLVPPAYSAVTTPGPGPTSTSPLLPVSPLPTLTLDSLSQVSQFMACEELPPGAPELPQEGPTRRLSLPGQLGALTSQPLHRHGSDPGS

## O=C(NC[C@]1(O)CC[C@H](COc2ccc(F)cc2)CC1)c1ccc(O)cc1 [Example 9, N-({trans-4-[(4-Fluorophenoxy)methyl]-1-hydroxcyclohexyl}methyl)-4-hydroxybenzamide]
other
  melting point: 176.4 °C
[1]
  IC50: 26.3 µM
[2]
  IC50: 0.0075 µM

## O=C(NC[C@]1(O)CC[C@H](COc2cccc(F)c2)CC1)c1ccc(O)cc1 [Example 10, N-({trans-4-[(3-Fluorophenoxy)methyl]-1-hydroxycyclohexyl}methyl)-4-hydroxybenzamide]
other
  melting point: 186 °C
[1]
  IC50: 25.8 µM
[2]
  IC50: 0.012 µM

## O=C(NC[C@]1(O)CC[C@H](COc2ccccc2F)CC1)c1ccc(O)cc1 [Example 11, N-({trans-4-[(2-Fluorophenoxy)methyl]-1-hydroxycyclohexyl}methyl)-4-hydroxybenzamide]
other
  melting point: 185 °C
[1]
  IC50: > 100 µM
[2]; competition assay, rat forebrain P2 membranes, read-out: Ki value, binding affinity for the NR2B receptor
  Ki: 0.0062 µM
[2]
  IC50: 0.0085 µM

## O=C(NC[C@]1(O)CC[C@H](COc2cc(F)cc(F)c2)CC1)c1ccc(O)cc1 [Example 13, N-({trans-4-[(3,5-Difluorophenoxy)methyl]-1-hydroxycyclohexyl}methyl)-4-hydroxybenzamide]
other
  melting point: 102.4 °C
[1]
  IC50: 62.6 µM
[2]
  IC50: 0.03 µM

## O=C(NC[C@]1(O)CC[C@H](COc2cccc(Cl)c2)CC1)c1ccc(O)cc1 [Example 15, N-({trans-4-[(3-Chlorophenoxy)methyl]-1-hydroxycyclohexyl}methyl)-4-hydroxybenzamide]
other
  melting point: 164.9 °C
[1]
  IC50: 20.7 µM
[2]
  IC50: 0.021 µM

## O=C(NC[C@]1(O)CC[C@H](COc2ccc(Cl)cc2)CC1)c1ccc(O)cc1 [Example 16, N-({trans-4-[(4-Chlorophenoxy)methyl]-1-hydroxycyclohexyl}methyl)-4-hydroxybenzamide]
other
  melting point: 208.2 °C
[1]
  IC50: > 100 µM
[2]
  IC50: 0.0198 µM

## Cc1ccccc1OC[C@H]1CC[C@@](O)(CNC(=O)c2ccc(O)cc2)CC1 [Example 17, 4-Hydroxy-N-({trans-1-hydroxy-4-[(2-methylphenoxy)methyl]cyclohexyl}methyl)benzamide]
other
  melting point: 189.1 °C
[1]
  IC50: > 100 µM
[2]
  IC50: 0.0234 µM

## Cc1cccc(OC[C@H]2CC[C@@](O)(CNC(=O)c3ccc(O)cc3)CC2)c1 [Example 18, 4-Hydroxy-N-({trans-1-hydroxy-4-[(3-methylphenoxy)methyl]cyclohexyl}methyl)benzamide]
other
  melting point: 201.4 °C
[1]
  IC50: > 100 µM
[2]
  IC50: 0.0152 µM

## Cc1ccc(OC[C@H]2CC[C@@](O)(CNC(=O)c3ccc(O)cc3)CC2)cc1 [Example 19, 4-Hydroxy-N-({trans-1-hydroxy-4-[(4-methylphenoxy)methyl]cyclohexyl}methyl)benzamide]
other
  melting point: 203.1 °C
[1]
  IC50: > 100 µM
[2]
  IC50: 0.0077 µM

## O=C(NC[C@]1(O)CC[C@H](COCc2ccccc2)CC1)c1ccc(O)cc1 [Example 21, N-({trans-4-[(Benzyloxy)methyl]-1-hydroxycyclohexyl}methyl)-4-hydroxybenzamide]
other
  melting point: 165.7 °C
[1]
  IC50: > 100 µM
[2]
  IC50: 0.0114 µM

## Nc1n[nH]cc1C(=O)NC[C@H]1CC[C@@H](COc2ccc(Cl)cc2)CO1 [Example 125, 3-Amino-N-({(2R,5R)-5-[(4-chlorophenoxy)methyl]tetrahydro-2H-pyran-2-yl}methyl)-1H-pyrazole-4-carboxamide]
[1]
  IC50: > 30 µM
[2]
  IC50: 0.0125 µM

## O=C(NC[C@H]1CC[C@@H](COc2ccc(Cl)cc2)CO1)c1cc(F)c(O)c(F)c1 [Example 126, N-({(2R,5R)-5-[(4-Chlorophenoxy)methyl]tetrahydro-2H-pyran-2-yl}methyl)-3,5-difluoro-4-hydroxybenzamide]
[1]
  IC50: > 100 µM
[2]
  IC50: 0.0181 µM

## O=C(NC[C@H]1CC[C@@H](COc2ccc(Cl)c(F)c2)CO1)c1cn[nH]c1 [Example 129, N-({(2R,5R)-5-[(4-Chloro-3-fluorophenoxy)methyl]tetrahydro-2H-pyran-2-yl}methyl)-1H-pyrazole-4-carboxamide]
[1]
  IC50: > 30 µM
[2]
  IC50: 0.0103 µM
